Measured values from PubChem BioAssay AID1645848.
≈ marks a conversion by molar mass, not a printed value.

Settings: buffer; pH 7.4; 6.0 h; 150.0 µM

| solubility kinetic [µg/mL] | SMILES |
| --- | --- |
| 15.2 (≈ 34.6 µM) | C[C@@]12O[C@@H](C[C@]1(O)CO)n1c3ccccc3c3c4c(c5c6ccccc6n2c5c31)CNC4=O |
| > 51 | CCOC(=O)C1CCN(C(=O)Nc2ccc3c(c2)nc(C)n3C)CC1 |
| 38.3 (≈ 114 µM) | NC(=O)C1CCN(c2nc(-c3cccc4ccccc34)cs2)CC1 |
| > 59 | CCN(CC)CCNC(=O)c1c(C)[nH]c(C=C2C(=O)Nc3ccc(F)cc32)c1C |
| 7.16 (≈ 19.4 µM) | COc1cc(NC(=O)c2nc3ccccc3n(C)c2=O)cc(OC)c1OC |
| 56.9 (≈ 110 µM) | O=C(Nc1nc(-c2ccccc2)cs1)c1ccncc1NS(=O)(=O)c1ccc(N2CCCC2=O)cc1 |
| < 1 | CCOc1ccc(-c2nnc(SCC(=O)NCc3ccccc3Cl)o2)cc1 |
| < 1 | CC(C)(C)OC(=O)N[C@@H](Cc1ccc(OS(=O)(=O)c2cccc3cnccc23)cc1)C(=O)N1CCCN(C(=O)OC(C)(C)C)CC1 |
| 1.05 (≈ 3 µM) | CC1=Nc2cc(C(=O)NC3CCCC3)ccc2Sc2ccc(C)cc21 |
| < 1 | Cc1ccc2c(c1)c(=O)c1ccccc1n2CCCC(=O)Nc1cc(Cl)ccc1C |
| < 1 | O=C(Nc1ccc(Nc2ccncc2)cc1)c1ccc(Nc2ccnc3ccc([N+](=O)[O-])cc23)cc1[N+](=O)[O-] |
| > 58 | COc1ccc(-n2nc(C3CCCN(C(=O)Cc4ccccn4)C3)[nH]c2=O)cc1 (stereo not given) |
| 17.5 (≈ 46.4 µM) | O=C(Cc1c[nH]c2ncc(-c3ccc(Cl)cc3)cc12)NCc1cccnc1 |
| < 1 | O=C(Nc1cccc(Cc2ccccc2)c1)c1ccc(-c2cccc([N+](=O)[O-])c2)o1 |
| < 1 | COCCNCc1ccc(-c2cc3nccc(Oc4ccc(NC(=O)C5(C(=O)Nc6ccc(F)cc6)CC5)cc4F)c3s2)nc1 |
| 13.2 (≈ 33.2 µM) | Cc1cnc(-c2ccccc2C(C)(C)C)nc1NCc1ccc(-n2ccnn2)cc1 |
| < 1 | O=C(Nc1ncc(Cc2ccc(C(F)(F)F)cc2)s1)c1ccco1 |
| 35.2 (≈ 88.3 µM) | Cc1cccc(-n2cnc3cc(C(=O)N4CCC(Br)CC4)ccc32)c1 |
| < 1 | O=[S+]([O-])(Nc1ccc(-c2ccccc2)cc1)c1ccc(NCc2ccc(Cl)cc2O)cc1 |
| 58.3 (≈ 124 µM) | COc1cccc(CNc2ccc(S(=O)(=O)Nc3ccc(N4CCNCC4)cc3)cc2)c1O |
| 1.24 (≈ 2.86 µM) | COc1ccnc(NC(=S)N2CCN(c3ncc(C(F)(F)F)cc3Cl)CC2)c1 |
| > 35 | Cc1cc(Oc2ccc(N)cn2)ccc1Cl |
| < 1 | Cc1noc(/C=C/c2ccccc2F)c1S(=O)(=O)N1CCC(C(=O)Nc2ccc(C#N)cc2)CC1 |
| 35.2 (≈ 98.6 µM) | N#Cc1ccc(-c2ccc(CNc3ccc(C4CCNCC4)cc3)o2)cc1 |
| > 40 | COc1oc(-c2cccc3ccccc23)nc1C(=O)O |
| 1.56 (≈ 2.8 µM) | COc1ccc2[nH]cc(CCNC(=O)c3cnn(-c4ccc(C)cc4)c3C3CCN(C(=O)OC(C)(C)C)CC3)c2c1 |
| 12.8 (≈ 24.8 µM) | O=[S+]([O-])(Nc1ccc(C2CCNCC2)cc1)c1ccc(NCc2ccc(Br)cc2O)cc1 |

Continued, compound first:

| SMILES | solubility kinetic [µg/mL] |
| --- | --- |
| Fc1ccc(-c2ccc(Nc3nc(-c4ccncc4)nc4ccccc34)cc2F)cc1 | < 1 |
| Cc1cc(NS(=O)(=O)c2ccc(C(=O)NCc3ccc(Cl)c(Cl)c3)cc2)no1 | > 65 |
| FC(F)(F)c1ccc(CN2CCNc3cc(Nc4ccccc4)ncc3C2)cc1 | < 1 |
| c1ccc2c(N3CCOCC3)nc(-c3ccncc3)nc2c1 | > 43 |
| O=C(NCCCCc1ccccc1)C1CCN(c2nc(-c3ccc(Br)cc3)cs2)CC1 | 7.06 (≈ 14.2 µM) |
| Cc1ccccc1OCC(O)CO (stereo not given) | > 27 |
| COc1cc(NC(=O)c2cc(-c3ccccc3O)no2)cc(OC)c1OC | 1.09 (≈ 2.93 µM) |
| Cc1ccc(S(=O)(=O)Nc2ccc(F)cc2C(=O)Nc2nc(-c3ccccc3)cs2)cc1 | < 1 |
| Fc1cc(Nc2nc(-c3ccncc3)nc3ccccc23)ccc1N1CCCCC1 | < 1 |
| COc1ccc(-n2c(C)cc(C3=NNC(=NC4CC4)SC3)c2C)cc1 | 14 (≈ 39.5 µM) |
| COc1cc(Cl)c(C)cc1NC(=O)CSc1ncc(S(=O)(=O)c2ccc(C(C)(C)C)cc2)c(=O)[nH]1 | < 1 |
| C#CCNC(=O)c1nc(-c2ccc([S+](C)(=O)[O-])cc2)c2ccccn12 | 1.27 (≈ 3.59 µM) |
| NC(=O)c1ccc(-c2ncc3cnc(-c4cccc(F)c4)cn23)cc1 | 10.9 (≈ 32.8 µM) |
| COc1ccc(NS(=O)(=O)c2ccc(C)cc2)cc1C(=O)Nc1nc(-c2ccccc2)cs1 | < 1 |
| O=C(NCCCNc1nc(Nc2cccc(CN3CCOCC3)c2)ncc1C1CC1)C1CCC1 | > 69 |
| Cc1nn(CCc2nc(-c3ccccc3F)cs2)c2[nH]c(=O)cc(C(F)(F)F)c12 | < 1 |
| Cc1ccc(S(=O)(=O)Nc2cc(C)ccc2C(=O)Nc2nc(-c3ccccc3)cs2)cc1 | < 1 |
| O=C(Nc1ccc(S(=O)(=O)Nc2nccs2)cc1)c1ccnc2ccccc12 | 2.55 (≈ 6.2 µM) |
| CCOC(=O)Nc1cc(-c2ccc(C)c(NS(C)(=O)=O)c2)nn2c(C)nnc12 | 33.6 (≈ 83.2 µM) |
| CCOC(=O)c1ccc(N2C(=O)c3n[nH]c(-c4ccco4)c3C2c2ccc(C)cc2)cc1 (stereo not given) | 1.45 (≈ 3.38 µM) |
| Cc1c(O)ccc2c1OC(C)(C)CC2 | 8.29 (≈ 43.1 µM) |
| Cc1cnc(SCc2ccccn2)nc1C1CCCN(C(=O)c2scc3c2CCCC3)C1 (stereo not given) | 4.03 (≈ 8.68 µM) |

| SMILES | solubility kinetic [µg/mL] |
| --- | --- |
| CCOc1ccc(CN2C(=O)c3ccccc3Sc3ccc(C(=O)NC4CCC(C)CC4)cc32)cc1 (stereo not given) | 6.78 (≈ 13.5 µM) |
| COc1ccccc1OCCNCC(O)COc1cccc2[nH]c3ccccc3c12 (stereo not given) | > 60 |
| COc1ccc(CCn2c(N)cc(=O)[nH]c2=S)cc1OC | > 45 |
| O=C(Nc1ncc(Cc2ccc(C(F)(F)F)cc2)s1)c1ncc(-c2ccccc2)[nH]1 | < 1 |
| O=C(O)c1ccc(-c2c[nH]c3ncc(-c4ccccc4)cc23)cc1C1CCCC1 | 7.57 (≈ 19.8 µM) |
| CCCS(=O)(=O)c1nc(NC2CC2)cc(-c2ccc3c(ccn3C3CC(C)(C)NC(C)(C)C3)c2)n1 | < 1 |
| COc1ccc(CN2CCNc3cc(Nc4ccccc4)ncc3C2)cc1O | > 83 |
| CNc1oc(-c2cccc(-c3ccccc3)c2)nc1C#N | < 1 |
| O=C(Nc1ccc(S(=O)(=O)Nc2nccs2)cc1)c1ccc(-c2ccccc2)cc1 | < 1 |
| CCOc1ccc(CCNC(=O)c2cc3c(s2)CCC3)cc1OCC | 4.46 (≈ 12.4 µM) |
| Cc1ccc(-c2nc(C)c(C(=O)Nc3ccc4c(c3)C(=O)N3CCC[C@H]3C(=O)N4)s2)cc1 | 4.88 (≈ 10.9 µM) |
| Cc1nn2c(c1-c1ccccc1-c1ccccc1)N(CCC(C)C)CCC2 | < 1 |
| Cc1ccc(-c2c(CN3CCN(c4cccc(C(F)(F)F)c4)CC3)csc2C)cc1 | < 1 |
| CC(C)CN(C[C@@H](O)[C@H](Cc1ccccc1)NC(=O)O[C@@H]1CO[C@H]2OCC[C@H]21)S(=O)(=O)c1ccc(N)cc1 | > 81 |
| Cc1ccc(CCNC(=O)C2CCCN(C(=O)c3cc4sccc4n3C)C2)cc1 (stereo not given) | 3.09 (≈ 7.55 µM) |
| O=C(Nc1ccc2oc(-c3ccncc3)nc2c1)c1ccccc1Cl | < 1 |
| Cc1cc(C)nc(NC(=S)N2CCN(c3ccc4nsnc4c3)CC2)c1 | 27.7 (≈ 72.1 µM) |
| CC(=O)N1CCc2c(sc3c2c(=O)n(-c2ccccc2Cl)c(=O)n3Cc2cccc(C)c2)C1 | 2.16 (≈ 4.5 µM) |
| O=S(=O)(Nc1nccs1)c1ccc(NCc2cccc(Cl)c2Cl)cc1 | < 1 |
| Oc1ccc(C(=S)N2CCN(c3cccc(Cl)c3)CC2)cc1 | < 1 |
| COc1cc(Nc2nc(-c3ccncc3)nc3ccccc23)ccc1NS(C)(=O)=O | < 1 |
